Test results published in patent US4879288A, “Novel dibenzothiazepine antipsychotic” (ICI Americas Inc., priority 1986, dated 1989).
Counter-ions that a name gives are not always drawn. Like-named read-outs stand apart in the source and are kept apart here.

Legend:
[1] = at therapeutic doses
sensitized cebus monkeys [2] = conditions: for Number of Monkeys with Dyskinetic Reactions/Number Tested: observed eight hours; for duration of reactions / intensity of reactions: typical reactions
Source text: The compound of Formula II, clozapine, thioridazine or haloperidol were each orally administered to sensitized cebus monkeys. They were then observed in their home cages continuously for eight hours and occurrences of dyskinetic reactions noted.

[3] = tested on: apomorphine-induced climbing; conditions: for Mean Climb Score: 13-14 min after apomorphine HCl 1.25 mg/kg s.c., vehicle 24
Experimental: (§1) A number of tests are recognized as showing antidopaminergic activity of a compound and/or as being predictive of antipsychotic activity in mammals. For these tests a compound of formula II in the form of a salt (for example, as described in Example 2) was used. All dosages in the tables are expressed as free base.
This test has been described by Ther and Schramm [Arch int. Pharmacodyn., 138: 302 (1962); Peuch, Simon and Boissier, Eur. J. Pharm., 50: 291 (1978)]. Mice that are administered an appropriate dose of apomorphine (a dopamine agonist) will climb the walls of a cage or other suitable structure and remain at or near the top for 20-30 minutes. Untreated mice on the other hand will occasionally climb up and then climb down. […] The antagonism of apomorphine-induced climbing in mice is therefore an indication of the potential dopamine blocking activity of the agent. Since dopamine blocking agents are typically antipsychotic agents, the test is considered to be evidence for potential antipsychotic activity of the agent. The vehicle itself [hydroxypropylmethylcellulose (HPMC) 0.5% w/v, polyoxyethylene (20) sorbitan monooleate (Tween 80) .1% w/v, and distilled water] or the vehicle with the test compound of the present invention was administered orally to twenty mice in graded doses. After 30 minutes, apomorphine HCl was administered subcutaneously at 1.25 mg/kg and the mice were placed in cages containing 28 horizontal rungs, upon which the mice could climb. Thirteen minutes later they were scored for climbing. The climbing score was the mean of the highest and lowest rungs on which the mouse climbed during a one-minute time period from 13 ° 14 minutes after apomorphine.

[4] = tested on: amphetamine-induced hyperactivity; conditions: for Activity Score (0-2 Hr) (Mean Number of Crossings of Center Line of Alley): vehicle 148
Experimental: A number of tests are recognized as showing antidopaminergic activity of a compound and/or as being predictive of antipsychotic activity in mammals. For these tests a compound of formula II in the form of a salt (for example, as described in Example 2) was used. All dosages in the tables are expressed as free base. This test has been described by Swerdlow and Koob [Pharmacol. Biochem. and Behav., 23: 303 (1985)]. Rats that are administered amphetamine at a moderate dose become hyperactivity. The hyperactivity can last for several hours, and can be measured in various ways, for example, by counting the number of times the rat walks from one end of a long alley to the other end. […] The hyperactivity of […]-treated rats can be antagonized (prevented) by pretreatment with dopamine-blocking agents. […] The compound of the present invention as the HCl salt or the vehicle (vehicle is defined in Example 5) were administered orally to 20 rats and […] injected intraperitoneally. Activity (walking back and forth in a long alley) was recorded for two hours.

[5] = tested on: rat striatal dihydroxyphenylacetic acid (DOPAC); conditions: rat striatum, HPLC
Source text: as §1
(§2) Among the various pharmacological effects of antipsychotics, their action as dopamine antagonists in the brain has been extensively investigated. Enhancement of dopamine metabolism (dihydroxyphenylacetic acid and homovanillic acid (DOPAC and HVA)) by antipsychotic agents has been attributed to a blockade of dopamine receptors [A. Carlson and M. Lindquist, Acta. Pharmac. Tox., (1963) 20: 140]. The effects of a compound of the invention on DOPAC and HVA levels in the rat striatum were measured by HPLC using electrochemcial detection according to the method of Saller and Salama [J. Chromatography, (1984) 309: 287].

[6] = tested on: rat striatal homovanillic acid (HVA); conditions: rat striatum, HPLC
Source text: as §1, §2

squirrel monkeys = conditions: for Number of Monkeys Scoring 75% (Or Less) Avoidance Responses/Number Tested: vehicle 0/20
Source text: as §1
The conditioned avoidance test has been described by Herz, A., Int. Rev. Neurobiol., (1960) 2: 229-277. In this test, a warning stimulus is presented for five seconds. The monkeys are trained to press a lever to turn off the warning stimulus thereby avoiding the delivery of electric shocks at 1/sec for 10 seconds that would begin at the end of the warning stimulus. If there is no response during the warning stimulus (no avoidance response) and the shocks begin, a response during the shocks stops the shocks. Trials of this type are repeated every minute for six hours. […] A compound of the present invention Formula II (HCl salt) was administered orally and the conditioned avoidance test was administered. The vehicle used was that defined in Example 5.

sensitized cebus monkeys [7] = conditions: background statement; cited from earlier work
schizophrenic patients = conditions: background statement; cited from earlier work
[8] = 20 mg/kg p.o., one of two reacting monkeys

Q: For OCCOCCN1CCN(C2=Nc3ccccc3Sc3ccccc32)CC1 [Formula II, 11-[4-[2-(2-Hydroxyethoxy)ethyl]-1-piperazinyl]-dibenzo[b,f][1,4]thiazepine], which overt toxicity [1] is on record?
A: The overt toxicity was “No overt toxicity”.

Q: What does the source list for CSc1ccc2c(c1)N(CCC1CCCCN1C)c1ccccc1S2 (stereo not drawn) [Thioridazine, reference compound]?
A: Number of Monkeys with Dyskinetic Reactions/Number Tested (sensitized cebus monkeys [2]; 10 mg/kg p.o.): 11/13; duration of reactions (sensitized cebus monkeys [2]; oral): several; intensity of reactions (sensitized cebus monkeys [2]; oral): moderate or high intensity

Q: With OCCOCCN1CCN(C2=Nc3ccccc3Sc3ccccc32)CC1 [Formula II (HCl salt), 11-[4-[2-(2-Hydroxyethoxy)ethyl]-1-piperaziny]dibenzo [b,f][1,4]thiazepine, hydrochloride salt] as the compound, how does the “Mean Climb Score” value ([3]; 10 mg/kg i.p. (head; text: orally)) read?
A: The value was 24.

Q: What about the “Mean Climb Score” value ([3]; 20 mg/kg i.p. (head; text: orally)) of the same compound?
A: Its value is 15.

Q: And the “Mean Climb Score” value ([3]; 40 mg/kg i.p. (head; text: orally))?
A: The value was 2.

Q: What about the “Mean Climb Score” value ([3]; 80 mg/kg i.p. (head; text: orally)) of the same compound?
A: Its value is 0.

Q: What about the “antagonism of apomorphine-induced climbing” value ([3]; result in words) of the same compound?
A: The value was “antagonized the climbing”.

Q: What about the “Activity Score (0-2 Hr) (Mean Number of Crossings of Center Line of Alley)” value (“Activity Score (0-2 Hr)” for short) ([4]; 10 mg/kg p.o., p < .05) of the same compound?
A: The value was 118.3 Crossings.

Q: What about the “Activity Score (0-2 Hr)” value ([4]; 20 mg/kg p.o., p < .0005) of the same compound?
A: Its value is 92.4 Crossings.

Q: What about the “Activity Score (0-2 Hr)” value ([4]; 40 mg/kg p.o., p < .0005) of the same compound?
A: Its value is 64.3 Crossings.

Q: What about the “Activity Score (0-2 Hr)” value ([4]; 80 mg/kg p.o., p < .0005) of the same compound?
A: Its value is 39.8 Crossings.

Q: And the “antagonism of amphetamine-induced hyperactivity” value ([4]; result in words)?
A: Its value is “antagonized the hyperactivity”.

Q: What about the “% Control DOPAC” value ([5]; 10 mg/kg i.p.) of the same compound?
A: Its value is 145 % Control.

Q: What about the “% Control DOPAC” value ([5]; 20 mg/kg i.p.) of the same compound?
A: Its value is 220 % Control.

Q: And the “% Control DOPAC” value ([5]; 40 mg/kg i.p.)?
A: The value was 300 % Control.

Q: What about the “% Control HVA” value ([6]; 10 mg/kg i.p.) of the same compound?
A: The value was 140 % Control.

Q: And the “% Control HVA” value ([6]; 20 mg/kg i.p.)?
A: Its value is 210 % Control.

Q: And the “% Control HVA” value ([6]; 40 mg/kg i.p.)?
A: The value was 260 % Control.

Q: And the “Number of Monkeys Scoring 75% (Or Less) Avoidance Responses/Number Tested” value (squirrel monkeys; 5 mg/kg p.o.)?
A: The value was 0/4.

Q: And the “Number of Monkeys Scoring 75% (Or Less) Avoidance Responses/Number Tested” value (squirrel monkeys; 10 mg/kg p.o.)?
A: The value was 15/20.

Q: What about the “Number of Monkeys Scoring 75% (Or Less) Avoidance Responses/Number Tested” value (squirrel monkeys; 20 mg/kg p.o.) of the same compound?
A: Its value is 19/20.

Q: And the “reduction of avoidance responses” value (squirrel monkeys; result in words, oral)?
A: The value was “marked reduction of avoidance responses”.

Q: And the “Number of Monkeys with Dyskinetic Reactions/Number Tested” value (sensitized cebus monkeys [2]; 2.5 mg/kg p.o.)?
A: Its value is 0/13.

Q: And the “Number of Monkeys with Dyskinetic Reactions/Number Tested” value (sensitized cebus monkeys [2]; 5 mg/kg p.o.)?
A: The value was 1/13.

Q: What about the duration of reaction (sensitized cebus monkeys [2]; 10 mg/kg) of the same compound?
A: Its duration of reaction is “about twenty”.

Q: And the intensity of reaction (sensitized cebus monkeys [2]; 10 mg/kg)?
A: The intensity of reaction was “weak”.

Q: What about the “Number of Monkeys with Dyskinetic Reactions/Number Tested” value (sensitized cebus monkeys [2]; 10 mg/kg p.o.) of the same compound?
A: The value was 1/13.

Q: And the “Number of Monkeys with Dyskinetic Reactions/Number Tested” value (sensitized cebus monkeys [2]; 20 mg/kg p.o., hydrochloride salt)?
A: The value was 2/13.

Q: And the “Number of Monkeys with Dyskinetic Reactions/Number Tested” value (sensitized cebus monkeys [2]; 20 mg/kg p.o., listed as compound of the present invention, hydrochloride salt)?
A: Its value is “two of thirteen”.

Q: And the duration of reaction (sensitized cebus monkeys [2]; [8])?
A: Its duration of reaction is “about five”.

Q: What about the intensity of reaction (sensitized cebus monkeys [2]; [8]) of the same compound?
A: Its intensity of reaction is “extremely weak”.

Q: And the “Number of Monkeys with Dyskinetic Reactions/Number Tested” value (sensitized cebus monkeys [2]; 40 mg/kg p.o.)?
A: Its value is 0/4.

Q: What about the “dyskinetic and dystonic reactions” value (sensitized cebus monkeys [2]; compared to haloperidol or thioridazine, oral) of the same compound?
A: The value was “markedly fewer dyskinetic and dystonic reactions”.

Q: And the “intensity of the reactions” value (sensitized cebus monkeys [2]; compared to thioridazine or haloperidol, oral)?
A: Its value is “less than that of thioridazine or haloperidol”.

Q: With CN1CCN(C2=Nc3cc(Cl)ccc3Nc3ccccc32)CC1 [Clozapine, reference compound] as the compound, how does the “Number of Monkeys with Dyskinetic Reactions/Number Tested” value (sensitized cebus monkeys [2]; 10 mg/kg p.o.) read?
A: The value was 0/1.

Q: What about the “Number of Monkeys with Dyskinetic Reactions/Number Tested” value (sensitized cebus monkeys [2]; 20 mg/kg p.o.) of the same compound?
A: Its value is 0/13.

Q: What about the “Number of Monkeys with Dyskinetic Reactions/Number Tested” value (sensitized cebus monkeys [2]; 40 mg/kg p.o.) of the same compound?
A: The value was 0/11.

Q: What about the “Number of Monkeys with Dyskinetic Reactions/Number Tested” value (sensitized cebus monkeys [2]; 60 mg/kg p.o.) of the same compound?
A: Its value is 0/5.

Q: What about the “dyskinetic reaction in sensitized cebus monkeys” value (sensitized cebus monkeys [7]) of the same compound?
A: Its value is “does not produce a dyskinetic reaction”.

Q: What about the tardive dyskinesia reported (schizophrenic patients) of the same compound?
A: The tardive dyskinesia reported was “no tardive dyskinesia reported”.

Q: What does the source list for O=C(CCCN1CCC(O)(c2ccc(Cl)cc2)CC1)c1ccc(F)cc1 [Haloperidol, reference compound]?
A: Number of Monkeys with Dyskinetic Reactions/Number Tested (sensitized cebus monkeys [2]; 1.0 mg/kg p.o.): 13/13; duration of reactions (sensitized cebus monkeys [2]; oral): several; intensity of reactions (sensitized cebus monkeys [2]; oral): moderate or high intensity
